Key:
[1] = system: platelet aggregation in human whole blood; assay: Inhibition of platelet aggregation in human whole blood; format: cell-based; settings: Homo sapiens, Platelet, 10 min, 10 minutes at 37° C., 10 µM adenosine added, ADP (6-25 μM)
Method: Whole blood was drawn from healthy donors and collected in 0.1 vol. of sodium citrate to prevent coagulation. Platelet aggregation was measured by the impedance technique using a Whole Blood Aggregometer. The test compounds were incubated in whole blood for 10 minutes at 37° C. and 10 µM adenosine was added 5 minutes before eliciting aggregation. Aggregation was induced by addition of ADP (6-25 μM) at the minimum concentration inducing full aggregation in untreated controls.

[2] = system: coronary endothelial cells; assay: Inhibition of adenosine utilization in cell culture; format: cell-based; settings: Endothelial cell, 1 μM [3H] adenosine, 15 minutes
Method: In this assay, endothelial cells were incubated with 5 μM or 50 μM of the test compound together with 1 μM [^3H] adenosine for 15 minutes. Inhibition of adenosine utilization was determined by measuring the concentration of extracellular adenosine by scintillation counting following separation by thin layer chromatography (TLC).

[3] = molecular target: T1, NBTI-specific adenosine transport site (UniProt O54698); assay: [3H]-NBTI binding assay; settings: read-out: ED50 (50% displacement of bound [3H]-NBTI); 0.5 mg neuronal membrane protein, 0.5 nM [3H]-NBTI, 30 minutes
T1 sequence (O54698 1-457): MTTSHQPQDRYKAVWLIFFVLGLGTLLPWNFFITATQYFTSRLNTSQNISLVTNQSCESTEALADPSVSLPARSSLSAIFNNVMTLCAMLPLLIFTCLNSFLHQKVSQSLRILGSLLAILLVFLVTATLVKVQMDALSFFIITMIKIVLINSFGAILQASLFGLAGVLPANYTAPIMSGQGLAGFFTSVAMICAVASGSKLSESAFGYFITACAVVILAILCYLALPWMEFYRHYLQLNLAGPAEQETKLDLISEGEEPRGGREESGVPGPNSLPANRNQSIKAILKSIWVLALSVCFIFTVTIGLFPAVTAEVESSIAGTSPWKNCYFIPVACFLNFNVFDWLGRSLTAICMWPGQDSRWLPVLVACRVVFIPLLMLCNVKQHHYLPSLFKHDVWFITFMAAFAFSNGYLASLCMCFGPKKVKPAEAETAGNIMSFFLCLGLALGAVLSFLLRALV
Method: Increasing concentrations of the test compounds were incubated for 30 minutes with 0.5 mg neuronal membrane protein together with 0.5 nM [^3 H]-NBTI in a Tris buffer (pH 7.4) at room temperature. The assays were quenched and membranes collected by rapid filtration. Filters were then solubilized and radioactivity determined by scintillation counting.

ischemic rat hearts = assay: Rat heart ischemia model: tissue adenosine levels; format: in vivo; settings: intraperitoneal; hearts excised after 60 minutes, incubated 60 minutes at 37° C.
Method: Male rats were injected intraperitonealy with either the AICA riboside analog, AICA riboside or saline, as a control. After 60 minutes, the hearts were excised and incubated at 37° C. for a further 60 minutes. Tissue extracts were prepared and analyzed for adenosine by high performance liquid chromatography (HPLC).

[4] = system: patients undergoing coronary artery bypass surgery; assay: Aspirin within 48 hours of revascularization: prospective study of CABG patients; format: in vivo
From the text: A prospective, longitudinal study enrolled 5,436 patients. Eligible patients included those with medically-refractory coronary artery disease and scheduled for coronary artery bypass surgery at 70 medical institutions among 17 countries in North and South America, Europe, the Middle East and Asia. At each institution, 100 patients were to be prospectively enrolled according to a systematic sampling scheme that allowed a random sampling of patients at each institution among all patients undergoing surgery at that institution.
Of the 5,436 patients enrolled, 5,065 patients completed the study and were included in the final analysis. Of the 371 patients excluded, 32 were excluded due to patient withdrawal, 2 due to death prior to surgery, 97 due to cancellation or rescheduling of surgery, 132 patients due to change in procedure, 11 due to inadvertent enrollment in another study, 86 due to incomplete data and 11 due to incomplete blood sampling, shipping or storage.
Aspirin was administered in doses of 160 mg to 650 mg to 3,001 patients within 48 hours of revascularization. All potential side-effects associated with aspirin use were recorded daily by blinded investigators. Independent investigators coded all medications received-including pro- and anti-thrombotic and pro- and anti-coagulant medications, and blood products—by day throughout hospitalization, as well as at admission and at discharge, or until death.
For each enrolled patient, approximately 7,500 fields of data were collected throughout the patient's index hospitalization, from admission until discharge, by independent investigators; treated physicians were blinded to all research data. Data included demographic, historical, clinical, laboratory, eloectrocardiographic, specialized testing, resource utilization, and adverse outcomes. Following last patient enrollment, all data fields for each patient were queried centrally for completeness and accuracy, with all changes documented prior to database closure.
All outcomes were prespecified, defined by protocol, and discerned by investigators blinded to treatment group. Fatal and non-fatal outcomes were classified as cardiac (myocardial infarction, congestive heart failure and cardiac death), cerebral (stroke, encephalopathy and cerebral death), renal (dysfunction, failure and renal death), gastrointestinal (ischemia, infarction and GI death), or other (such as infectious, pulmonary). The diagnosis of myocardial infarction required either: the development of new Q waves (as defined by Minnesota Code 1-1-1I or 1I-2-7); or new persistent S T-segment or T-wave changes (Minnesota Code 4-1, 4-2, 5-1 or 5-2) associated with an elevation of CK-MB isoenzyme values; or autopsy evidence of acute myocardial infarction. The diagnosis of heart failure required either: the use of a ventricular assist device; or the use of continuous inotropic support for at least 24 hours; or autopsy evidence of heart failure. Cerebral outcomes were classified as: clinically diagnosed stroke or encephalopathy; or CT, MRI or autopsy evidence of a focal or global defect. Renal dysfunction was defined as: a serum creatinine ≧177 μmol/L accompanied by a ≧62 μmol/L rise over baseline; and renal failure was defined as dysfunction requiring dialysis, or autopsy evidence of renal failure. Gastrointestinal ischemia was defined as abdominal pain diagnosed as intestinal ischemia, or detected at exploration; infarction required bowel resection, or autopsy evidence of intestinal infarction.
The risk of death for aspirin taking versus control populations were compared using the Chi-Square test. Individual ischemic outcomes involving the heart, brain, kidney and gastrointestinal tract, and combined ischemic outcomes were compared using Fisher's Exact Test or the Chi-Square test as appropriate. Odds ratios and the 95% confidence intervals are presented with associated P values. […]

[5] = molecular target: T2, purified pig heart adenosine kinase (Sus scrofa, UniProt A0A5G2R0F5); assay: Adenosine kinase activity; format: biochemical; settings: 0.5 μM [U14C] adenosine, 1 mM ATP, 20 minutes at 37° C.
T2 construct: 0.1 μg of purified pig heart adenosine kinase; from tissue; host or cells: pig heart
Method: Inhibition of enzyme activity was determined using a 0.1 ml assay mixture containing 50 mM Tris-maleate, pH 7.0, 0.1% (w/v) BSA, 1 mM ATP, 1 mM MgCl2, 0.5 μM [U^14 C] adenosine (500 mCi/mmol) and 0.1 μg of purified pig heart adenosine kinase. Different concentrations of test compound were incubated in the assay mixture for 20 minutes at 37° C. From each reaction mixture, 20 μl portions were removed and spotted on 2^2 pieces of Whatman DE81 filter paper. The papers were then washed to remove [^14 C] adenosine in 1 mM ammonium formate followed by deionized water and finally 95% ethanol. The papers were dried, and [^14C] AMP measured by scintillation counting. Activities were determined from the amount of [^14C] AMP formed.

[6] = system: longitudinal muscle from the guinea pig ileum; assay: Inhibition of stimulated contraction in isolated ileum; settings: electrically stimulated guinea pig ileum muscle
From the text: These are detailed in Table II.

[7] = Oral bioavailability and half-life in fasted adult beagles; format: in vivo, dog
Method: Heparinized blood and urine were collected at selected intervals over 24 hours. Each sample was chilled, centrifuged at 4° C. and frozen prior to HPLC analysis.

T2 sequence (A0A5G2R0F5 1-362): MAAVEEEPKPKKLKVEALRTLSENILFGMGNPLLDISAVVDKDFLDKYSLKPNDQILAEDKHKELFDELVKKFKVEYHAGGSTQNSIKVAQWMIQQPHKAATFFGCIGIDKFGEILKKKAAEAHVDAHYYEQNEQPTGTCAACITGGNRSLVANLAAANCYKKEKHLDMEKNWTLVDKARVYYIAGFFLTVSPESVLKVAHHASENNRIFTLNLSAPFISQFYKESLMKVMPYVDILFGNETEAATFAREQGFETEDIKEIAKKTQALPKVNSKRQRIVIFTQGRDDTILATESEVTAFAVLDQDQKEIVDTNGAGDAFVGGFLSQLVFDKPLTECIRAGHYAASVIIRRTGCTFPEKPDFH

## Nc1c(C(=O)NCc2ccc([N+](=O)[O-])cc2)ncn1C1OC(CCl)C(O)C1O (stereo not shown) [51 (1-466)]
[1]
  IC50: 193 µM
[2]
  inhibition at 5 µM: 27 ± 2%
  inhibition at 50 µM: 65 ± 2%
other
  melting point: 174 to 176 °C

## Nc1c(C(=O)Nc2ccccc2Cl)ncn1C1OC(CO)C(O)C1O [Compound No. 64 (1-519), 5-Amino-1-β-D-ribofuranosylimidazole-4-N-(2-chlorophenyl)carboxamide]
other
  melting point: 131 to 135 °C
[3]
  EC50: 48 µM

## Nc1c(C(=O)Nc2ccc(I)cc2)ncn1C1OC(CO)C(O)C1O [Compound No. 57 (1-488), 5-Amino-1-β-D-ribofuranosyl-imidazole-4-N-(4-iodophenyl) carboxamide]
other
  melting point: 227 to 229 °C
[3]
  EC50: 80 µM

## CC(=O)OC[C@H]1O[C@@H](c2nc(C(N)=O)c(N)[nH]2)[C@H](OC(C)=O)[C@@H]1OC(C)=O [Compound No. 2 (1-111), 5-Amino-(2,3,5-tri-O-acetyl-beta-D-ribofuranosyl)imidazole-4-carboxamide]
other
  melting point: 128 to 129 °C

## Nc1c(C(=O)NN2CCCCC2)ncn1[C@@H]1O[C@H](CO)[C@@H](O)[C@H]1O [Compound No. 36 (1-207), 5-amino-4-(1-piperidinocarbamoyl)-1-β-D-ribofuranosylimidazole]
Ischemic rat hearts
  Tissue Adenosine Levels (% Increase vs. Saline): 34%

## CC(=O)Oc1ccccc1C(=O)O [Aspirin]
[4]; Aspirin use (admission)
  Odds Ratio for mortality (multivariate): 1.46
[4]; Aspirin use (prior to surgery)
  Odds Ratio for mortality (multivariate): 0.77
[4]; Aspirin use following revascularization
  Odds Ratio for mortality (multivariate): 0.27
[4]; Discontinuation of aspirin use
  Odds Ratio for mortality (multivariate): 1.04
[4]; aspirin group, 11.32±9.44 without
  Length of hospitalization: 9.57±7.14
[4]; aspirin group, 25 patients in the control group
  patients who died within 12 hours of surgery: none
[4]; aspirin group, 42 patients in the control group
  patients who died within 48 hours of surgery: one
[4]; aspirin within 48 hours of revascularization, 5.9% without
  risk of dying during hospitalization: 1.4%
[4]; aspirin within 48 hours of revascularization, 24.5% without
  non-fatal ischemic complications (heart, brain, kidney or gastrointestinal tract): 13.6%
[4]; first use of aspirin 48 hours after surgery, not significant (P=0.534)
  reduction in mortality: 15%

## NC[C@H]1O[C@@H](n2c(S)nc(C(N)=O)c2N)[C@H](O)[C@@H]1O [Compound No. 70 (1-551), 5-Amino-2-thio-1-(5-amino-5-deoxy-β-D-ribofuranosyl)imidazole-4-carboxamide]
[5]
  IC50: 17 µM

## Nc1c(C(=O)NCc2ccc([N+](=O)[O-])cc2)ncn1C1OC(CO)C(O)C1O [Compound No. 23 (1-343), 5-Amino-1-β-D-ribofuranosyl-imidazole-4-N-[(4-nitrophenyl)methyl]carboxamide]
[1]
  IC50: 38 µM
[2]
  inhibition at 5 µM: 27 ± 4%
  inhibition at 50 µM: 63 ± 2%
[6]; Cavia porcellus
  IC50: 3 µM
[3]
  EC50: 3 µM

## NC[C@H]1O[C@@H](n2cnc(C(N)=O)c2N)[C@H](O)[C@@H]1O [Compound No. 21 (1-227), 5′-Amino-5′-deoxy-AICA-riboside]
[6]
  IC50: 800 µM
[7]
  Half Life: 1.30 h
[7]; 10 mg/kg IV bolus and 20 mg/kg via stomach tube
  Absolute Oral Bioavailability %: 71 ± 13 (n = 2) %

## C[C@H]1O[C@@H](n2c(S)nc(C(N)=O)c2N)[C@H](O)[C@@H]1O [Compound No. 67 (1-535), 5-Amino-2-thio-1-βD-(5 deoxyribofuranosyl)imidazole-4-carboxamide]
[5]
  IC50: 23 µM

## Nc1c(C(=O)NC2CC2)ncn1[C@@H]1O[C@H](CO)[C@@H](O)[C@H]1O [Compound No. 12 (1-232), 5-Amino-1-beta-D-ribofuranosylimidazole-4-N-(cyclopropyl)carboxamide]
[6]
  IC50: 400 µM
Ischemic rat hearts
  Tissue Adenosine Levels (% Increase vs. Saline): 29%

## NC(=O)c1nc(S)n([C@@H]2O[C@H](CO)[C@@H](O)[C@H]2O)c1N [27 (1-395), 5-amino-2-thio-1-β-D-ribofuranosyl imidazole-4-carboxamide]
[1]
  IC50: 950 µM
[6]; Cavia porcellus
  IC50: 500 µM
[5]
  IC50: 8 µM
other
  melting point: 205 to 208 °C
[3]
  EC50: 344 µM

## Nc1c(C(=O)Nc2ccc(Br)cc2)ncn1C1OC(CO)C(O)C1O [Compound No. 55 (1-484), 5-Amino-1-β-D-ribofuranosylimidazole-4-N-(4-bromophenyl)carboxamide]
other
  melting point: 214 to 216 °C (dec.)
[3]
  EC50: 60 µM

## CC(=O)CC(c1ccccc1)c1c(O)c2ccccc2oc1=O (stereo not shown) [Warfarin/coumadin]
[4]; Warfarin/coumadin over the week prior to revascularization
  Odds Ratio for mortality (multivariate): 2.00
